The source of these data is patent US9187450B2, “Substituted pyridine compound” (Daiichi Sankyo Company, Limited, priority 2010, dated 2015).

Chain of recombinant human CETP protein (P11597 18-493): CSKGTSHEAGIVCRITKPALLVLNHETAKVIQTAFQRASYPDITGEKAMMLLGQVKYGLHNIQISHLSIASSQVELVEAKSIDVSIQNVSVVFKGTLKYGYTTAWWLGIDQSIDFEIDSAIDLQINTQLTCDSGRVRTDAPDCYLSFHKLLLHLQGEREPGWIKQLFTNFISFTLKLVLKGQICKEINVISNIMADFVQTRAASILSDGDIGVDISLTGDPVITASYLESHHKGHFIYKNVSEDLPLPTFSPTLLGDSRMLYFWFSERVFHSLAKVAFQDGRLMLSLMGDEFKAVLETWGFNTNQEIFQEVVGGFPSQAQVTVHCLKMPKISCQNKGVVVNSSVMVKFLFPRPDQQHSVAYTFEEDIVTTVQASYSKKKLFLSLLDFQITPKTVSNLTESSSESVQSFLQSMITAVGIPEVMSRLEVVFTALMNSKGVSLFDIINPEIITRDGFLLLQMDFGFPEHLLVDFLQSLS

This test concerns the target recombinant human CETP protein (Homo sapiens (Human), UniProt P11597). The test can be described thus: Test of CETP inhibition activity (in vitro, buffer-based). The test is classed as biochemical. Conditions: reconstituted HDL with [14C]-labeled cholesteryl ester, acceptor lipoprotein, 37° C. On the procedure:
Test of CETP Inhibition Activity (In Vitro, Buffer-Based)
(1) Preparation of Reconstituted HDL
Cholesterol (1.125 μmol), phosphatidyl choline (4.5 μmol) and [^14C]-labeled cholesteryl ester (2.0 μCi; 40 μl) were taken in a glass test tube and well mixed with a vortex, and dried under a nitrogen gas current so that it formed a thin film. The obtained mixture was dissolved in ethanol (200 μl), which was designated as Solution A. A PBS solution [a mixed solution of Na2HPO4 (30 mM), KH2PO4 (8.8 mM), NaCl (60 mM) and EDTA (pH 7.4; 0.67 mM); 4 ml] was taken in a tube and the reaction solution was vigorously stirred with a vortex under a nitrogen current. The above-described Solution A was gently injected into this mixture with a syringe and the reaction solution was vigorously stirred with a vortex for 5 minutes under a nitrogen current. Sodium cholate ([…]; 0.38 ml) was added to the obtained mixture and the reaction solution was stirred for 2 minutes. ApoA-I protein (3 mg) was added to the obtained mixture and the reaction solution was stirred for 2 minutes. The obtained mixture was adjusted to 5 ml with the PBS solution and then dialyzed with the PBS solution. The obtained mixture was designated as the reconstituted HDL.
(2) Preparation of Acceptor Lipoprotein
NaBr was added to the plasma of a healthy person and the density of the mixture was adjusted to 1.019, and the mixture was subjected to density gradient centrifugation (40000 rpm, for 16 hours) to remove the fraction having a density of less than 1.019. NaBr was added to the obtained mixture and the density of the solution was adjusted to 1.063, and the solution was subjected to density gradient centrifugation (40000 rpm, 18 hours) to provide the fraction consisting of IDL (intermediate density lipoprotein) and LDL (1.019<density<1.063). The obtained fraction was dialyzed with the PBS solution. The obtained mixture was designated as the acceptor lipoprotein.
(3) Measurement of CETP Inhibition Activity
A recombinant human CETP protein (manufactured by Roar Biomedical Inc.; 4.5 ng), the acceptor lipoprotein described in (2) above (32.5 μg) and 5,5′-dithio-bis-(2-nitrobenzoic acid) (7 mM, 15 μl) were taken in a 96 well plate and the total amount of the mixture was adjusted to 48.5 μl with the PBS solution. The test compound [DMSO solution (concentration: 0.15, 0.5, 1.5, 5, 15, 50, 150 and 500 μM; 1.5 μl] was added to each well and the mixture was incubated in a thermostatic bath at 37° C. for 60 minutes. The reconstituted HDL (50 μl) described in (1) above was added to each well and the mixture was reacted in a thermostatic bath at 37° C. for 60 minutes. The 96 well plate was moved onto ice and a precipitation reagent [a mixed solution of magnesium chloride (60 mM) and 0.1% dextran sulfate [1/1 (v/v)]; 15 μl] was added to each well, and then the mixture was allowed to stand on ice for 15 minutes. The reaction solution (80 μl) in each well was moved to a filter plate and centrifuged at 1500 rpm for 1 minute, and the filtrate which passed through the filter was designated as the HDL fraction and the radioactivity thereof was measured with a scintillation counter. The percentage decrease in radioactivity in the case where the test compound was added in comparison with that in case where the test compound was not added was designated as the percentage CETP inhibition. The IC50 value was calculated from the percentage CETP inhibition.
The IC50 is the concentration at which inhibition is half-maximal. `CCOCc1cnc(N2CCC(c3nc4c(c(C5CCC(F)(F)CC5)c3[C@@H](F)c3ccc(C(F)(F)F)cc3)[C@@H](O)CC(C)(C)C4)CC2)nc1` (single isomer, unassigned) [Example 26, (−)-4-(4,4-Difluorocyclohexyl)-2-{1-[5-(ethoxymethyl)pyrimidin-2-yl]piperidin-4-yl}-3-{fluoro[4-(trifluoromethyl)phenyl]methyl}-7,7-dimethyl-5,6,7,8-tetrahydroquinolin-5-ol]: the concentration for half-maximal inhibition (IC50) stood at 0.045 µM.

As for `CC1(C)Cc2nc(C3CCN(c4ncc(-c5cccc(C(=O)O)c5)cn4)CC3)c([C@@H](F)c3ccc(C(F)(F)F)cc3)c(C3CCC(F)(F)CC3)c2[C@@H](O)C1` [Example 55, (−)-2-{1-[5-(3-Carboxyphenyl)pyrimidin-2-yl]piperidin-4-yl}-4-(4,4-difluorocyclohexyl)-3-{fluoro[4-(trifluoromethyl)phenyl]methyl}-7,7-dimethyl-5,6,7,8-tetrahydroquinolin-5-ol], the IC50 turned out to be 0.059 µM.

As to `CN(CCO)c1cnc(N2CCC(c3nc4c(c(C5CCC(F)(F)CC5)c3[C@@H](F)c3ccc(C(F)(F)F)cc3)[C@@H](O)CC(C)(C)C4)CC2)nc1` (single isomer, unassigned) [Example 56, 4-(4,4-Difluorocyclohexyl)-3-{fluoro[4-(trifluoromethyl)phenyl]methyl}-2-(1-{5-[(2-hydroxyethyl)(methyl)amino]pyrimidin-2-yl}piperidin-4-yl)-7,7-dimethyl-5,6,7,8-tetrahydroquinolin-5-ol], the half-inhibitory concentration (IC50) was determined as 0.028 µM.

Turning to `CN1CCN(c2cnc(N3CCC(c4nc5c(c(C6CCC(F)(F)CC6)c4[C@@H](F)c4ccc(C(F)(F)F)cc4)[C@@H](O)CC(C)(C)C5)CC3)nc2)CC1` (single isomer, unassigned) [Example 8, (−)-4-(4,4-Difluorocyclohexyl)-3-{fluoro[4-(trifluoromethyl)phenyl]methyl}-7,7-dimethyl-2-{1-[5-(4-methylpiperazin-1-yl)pyrimidin-2-yl]piperidin-4-yl}-5,6,7,8-tetrahydroquinolin-5-ol], the IC50 worked out at 0.019 µM.

As for `CC(C)/C=C/c1cnc(N2CCC(c3nc4c(c(C5CCC(F)(F)CC5)c3[C@@H](F)c3ccc(C(F)(F)F)cc3)[C@@H](O)CC(C)(C)C4)CC2)nc1` (single isomer, unassigned) [Example 34, (−)-4-(4,4-Difluorocyclohexyl)-3-{fluoro[4-(trifluoromethyl)phenyl]methyl}-7,7-dimethyl-2-(1-{5-[(1E)-3-methylbut-1-ene-1-yl]pyrimidin-2-yl}piperidin-4-yl)-5,6,7,8-tetrahydroquinolin-5-ol], the IC50 stood at 0.054 µM.

With `Cc1noc(-c2cnc(N3CCC(c4nc5c(c(C6CCC(F)(F)CC6)c4[C@@H](F)c4ccc(C(F)(F)F)cc4)[C@@H](O)CC(C)(C)C5)CC3)nc2)n1` (single isomer, unassigned) [Example 35, 4-(4,4-Difluorocyclohexyl)-3-{fluoro[4-(trifluoromethyl)phenyl]methyl}-7,7-dimethyl-2-{1-[5-(3-methyl-1,2,4-oxadiazol-5-yl)pyrimidin-2-yl]piperidin-4-yl}-5,6,7,8-tetrahydroquinolin-5-ol], the IC50 worked out at 0.088 µM.

For `CC1(C)Cc2nc(C3CCN(c4ncc(C(=O)N5CCOCC5)cn4)CC3)c([C@@H](F)c3ccc(C(F)(F)F)cc3)c(C3CCC(F)(F)CC3)c2[C@@H](O)C1` (single isomer, unassigned) [Example 32, 4-(4,4-Difluorocyclohexyl)-3-{fluoro[4-(trifluoromethyl)phenyl]methyl}-7,7-dimethyl-2-{1-[5-(morpholin-4-yl-carbonyl)pyrimidin-2-yl]piperidin-4-yl}-5,6,7,8-tetrahydroquinolin-5-ol], the half-maximal inhibitory concentration (IC50) was 0.019 µM.

As to `CC1(C)Cc2nc(C3CCN(c4ncc(C#N)cn4)CC3)c([C@@H](F)c3ccc(C(F)(F)F)cc3)c(C3CCC(F)(F)CC3)c2[C@@H](O)C1` (single isomer, unassigned) [Example 17, (−)-2-[1-(5-cyanopyrimidine-2-yl)piperidin-4-yl]-4-(4,4-difluorocyclohexyl)-3-{fluoro[4-(trifluoromethyl)phenyl]methyl}-7,7-dimethyl-5,6,7,8-tetrahydroquinoline-5-ol], the half-inhibitory concentration (IC50) is 0.217 µM.

Take `CC1(C)Cc2nc(C3CCN(c4ncc(N5CC[C@H](O)C5)cn4)CC3)c([C@@H](F)c3ccc(C(F)(F)F)cc3)c(C3CCC(F)(F)CC3)c2[C@@H](O)C1` (single isomer, unassigned) [Example 57]: the concentration for half-maximal inhibition (IC50) turned out to be 0.033 µM.

Regarding `C[C@@H](O)COc1cnc(N2CCC(c3nc4c(c(C5CCC(F)(F)CC5)c3[C@@H](F)c3ccc(C(F)(F)F)cc3)[C@@H](O)CC(C)(C)C4)CC2)nc1` (single isomer, unassigned) [Example 42], the IC50 came out at 0.022 µM.

On to `CC(C)(O)COc1cnc(N2CCC(c3nc4c(c(C5CCC(F)(F)CC5)c3[C@@H](F)c3ccc(C(F)(F)F)cc3)[C@@H](O)CC(C)(C)C4)CC2)nc1` (stereo in doubt) [Example 44, 4-(4,4-Difluorocyclohexyl)-3-{fluoro[4-(trifluoromethyl)phenyl]methyl}-2-{1-[5-(2-hydroxy-2-methylpropoxy)pyrimidin-2-yl]piperidin-4-yl}-7,7-dimethyl-5,6,7,8-tetrahydroquinolin-5-ol], for which the IC50 is 0.021 µM.

Regarding `CC1(C)Cc2nc(C3CCN(c4ncc(N5CCOCC5)cn4)CC3)c([C@@H](F)c3ccc(C(F)(F)F)cc3)c(C3CCC(F)(F)CC3)c2[C@@H](O)C1` (single isomer, unassigned) [Example 5, (−)-4-(4,4-Difluorocyclohexyl)-3-{fluoro[4-(trifluoromethyl)phenyl]methyl}-7,7-dimethyl-2-{1-[5-(morpholin-4-yl)pyrimidin-2-yl]piperidin-4-yl}-5,6,7,8-tetrahydroquinolin-5-ol], the IC50 is 0.25 µM.

As to `CC1(C)Cc2nc(C3CCN(c4ncc(OCC(CO)CO)cn4)CC3)c([C@@H](F)c3ccc(C(F)(F)F)cc3)c(C3CCC(F)(F)CC3)c2[C@@H](O)C1` (single isomer, unassigned) [Example 49, (−)-4-(4,4-Difluorocyclohexyl)-3-{fluoro[4-(trifluoromethyl)phenyl]methyl}-2-(1-{5-[3-hydroxy-2-(hydroxymethyl)propoxy]pyrimidin-2-yl}piperidin-4-yl)-7,7-dimethyl-5,6,7,8-tetrahydroquinolin-5-ol], the IC50 was 0.008 µM.

On to `CC1(C)Cc2nc(C3CCN(c4ncc(N5CCCCC5)cn4)CC3)c([C@@H](F)c3ccc(C(F)(F)F)cc3)c(C3CCC(F)(F)CC3)c2[C@@H](O)C1` (single isomer, unassigned) [Example 6, (−)-4-(4,4-Difluorocyclohexyl)-3-{fluoro[4-(trifluoromethyl)phenyl]methyl}-7,7-dimethyl-2-{1-[5-(piperidin-1-yl)pyrimidin-2-yl]piperidin-4-yl}-5,6,7,8-tetrahydroquinolin-5-ol], for which the IC50 came out at 0.066 µM.

As for `CC(C)Oc1cnc(N2CCC(c3nc4c(c(C5CCC(F)(F)CC5)c3[C@@H](F)c3ccc(C(F)(F)F)cc3)[C@@H](O)CC(C)(C)C4)CC2)nc1` (single isomer, unassigned) [Example 14, (−)-4-(4,4-Difluorocyclohexyl)-3-{fluoro[4-(trifluoromethyl)phenyl]methyl}-7,7-dimethyl-2-{1-[5-(propan-2-yloxy)pyrimidin-2-yl]piperidin-4-yl}-5,6,7,8-tetrahydroquinolin-5-ol], the IC50 amounted to 0.097 µM.
